Here are results for one substance from patent publication US10202604B2, “Methods of using microRNA-141” (Stemirna Therapeutics Co., Ltd., priority 2016, dated 2019).

In one data set the test system is PPC-1 cells. Description: Clonal and sphere formation assays. The class given is cell-based, human. Here is the method: For clonal assays, cultured prostate cancer cells or human prostate cancer cells freshly purified from patient primary tumors were plated at a clonal density (i.e., 100 cells/well) in a 6-well plate. The number of holoclones (33) was counted several days later. For Matrigel-based sphere formation assays, cells in medium were plated (generally 1,000 cells/well) in Matrigel at 1:1 ratio in a total of 100 μl in 96-well plates. Spheres were enumerated 1-2 weeks after plating. For floating sphere formation assays, cells were plated in serum-free epithelial basal medium (PrEBM) supplemented with B27 (Invitrogen), and 20 ng/ml EGF and bFGF in ultra-low attachment (ULA) plate. Floating spheres that arose in 1-2 weeks were counted. For all these experiments, a minimum of triplicate wells was run for each condition and repeat experiments were performed when necessary and feasible.

The test system of data set [1] is CD44+ and bulk human prostate cancer (HPCa) cells freshly purified from patient tumors. Description: Clonal and sphere formation assays, primary patient cells. The class given is cell-based. The procedure: Average % of CD44^+ cells (as determined by flow analysis; n=3-5) is indicated for each cell type (UD, undetectable). […] Purified CD44^+ Du145 cells were transfected with NC or miR-141 oligos (30 nM, 48 h) and then plated for clonal (1D & 1E) and sphere (1F) assays. Bars represent mean±SD. *, P<0.05; **, P<0.01. […] Shown are tumor images, cell numbers injected (100,000 cells per injection for all models), site of injection (s.c, subcutaneously) and days (d) when tumors were harvested. Tumor weight and incidences with corresponding P values are also indicated. ns, not significant. […] For 1st generation (1°) sphere assays, 1,000 cells per well were plated in triplicate for each group in 12-well plate and results scored in 11 days. For 2nd generation (2°), the 1° spheres were harvested, digested with Collagenase and Trypsin into single cells, 1,000 cells/well were plated, and results scored in 10 days. Quantification of the colonies was plotted (1 L; **P<0.01). […]
For clonal assays, cultured prostate cancer cells or human prostate cancer cells freshly purified from patient primary tumors were plated at a clonal density (i.e., 100 cells/well) in a 6-well plate. The number of holoclones (33) was counted several days later. […] Floating spheres that arose in 1-2 weeks were counted. […]

Data set [2] has as its system PPC-1 bulk cells or CD44+ DU145 cells. The data set can be described thus: EdU incorporation flow cytometry. The class given is cell-based, human. To be noted: miR-141-overexpressing cells; 30 nM oligos 48 h, 10 μM EdU 2.5 h. The procedure:
EdU (5-ethynyl-2′-deoxyuridine) is a nucleoside analog to thymidine and incorporated into DNA during active DNA synthesis. EdU incorporation assays were performed using Click-iT EdU Flow Cytometer Assays kit (C10418, Invitrogen) per manufacturer's instructions. Briefly, PPC-1 bulk cells or CD44^+ DU145 cells transfected with negative control or miR-141 oligos (30 nM) for 48 h were pulsed with 10 μM EdU for 2.5 h and harvested. After fixation and permeabilization, cells were processed for EdU immunostaining and also labeled with Pacific Blue azide (1:200) and finally analyzed on a flow cytometer.
Background: Flow cytometry measures light scatter and fluorescence of single cells or particles in a stream.

Another data set relates to prostate cancer cells. Description: Cell death and senescence. The class given is cell-based. To be noted: miR-141 expression.
For the next data set, the system named is CD44. Description: CD44 mRNA and protein levels in prostate cancer cells. The class given is cell-based, human. To be noted: bulk Du145 and PC3 cells or CD44+ Du145 cells. The procedure: FIGS. 3A-3J show partial suppression of epithelial to mesenchymal transition by miR-141 and CD44 as a direct target of miR-141. FIGS. 3A-3B show qPCR analysis of epithelial to mesenchymal transition markers in bulk (FIG. 3A) or CD44^+ (FIG. 3B) Du145 cells transfected with the miR-141 oligos (30 nM; 48 h). Results were presented as the relative expression levels over the cells transfected with the NC oligos. […] GAPDH was used as control and the relative protein levels after normalizing to GAPDH and NC controls were indicated below each lane. […] Shown below is the actual sequence in the region with the mutated miR-141 binding sequence indicated in grey (below). […] Shown are representative images. […] Du145 cells were co-transfected with NC or miR-141 oligos (30 nM) together with pBabe empty vector or pBabe-CD44 vector. After 48 h, cells were harvested for invasion assays. Bars, mean±SD. *, P<0.05; **, P<0.01.
Total RNA was extracted using microRNA isolation kit (Life Technologies) according to the manufacturer's instructions. microRNA qPCRs were performed using TaqMan microRNA assays (Life Technologies). qPCR data for microRNAs were normalized to RNU48 whereas qPCR data for mRNAs were normalized to GAPDH.

Data set [3] relates to RAC1, CDC42, ARPC5 and CDC42EP3. Description: Western blotting of Rho GTPase signaling members. In kind it is cell-based, human. To be noted: Du145 cells, miR-141 over-expression. The procedure: Du145 cells transfected with NC or miR-141 oligos at the two doses and time intervals indicated were used in Western blotting. Indicated below are relative expression levels (normalized to respective GAPDH and compared to NC) of each protein determined by densitometric scanning of the individual bands. […] Bars, mean±SD. *P<0.05; **P<0.01. […] Du145 cells were co-transfected with NC or miR-141 oligos (30 nM) in combination with pcDNA3.1 (control) vector or pcDNA-RAC1 or pcDNA-CDC42 expression vector. After 48 h, cells were harvested for invasion assays. […] Du145 cells were infected with Lenti-141 or control lentivirus (MOI 10, 48 h) and then harvested to measure the Rho GTPase activities. Bars, mean±SD. *P<0.05. […] Du145 cells were transfected with the antisense oligos to NC or miR-141 (anti-141; 30 nM) and then used in invasion assays (FIG. 5E). In FIG. 5F and FIG. 5G Du145 cells were transfected with 10 nM of scramble siRNA control (siCon) or siRNAs targeting RAC1 (FIG. 5F) or CDC42 (FIG. 5G), either alone or in combination of anti-141 (30 nM). 48 h later, cells were harvested for invasion assays. Bars, mean±SD. *P<0.05; **P<0.01.

Turning to “miR-141: miR-141 mirVana mimics (Life Technologies); microRNA-141 oligonucleotide may have SEQ ID NO: 1; in some experiments over-expressed by lentiviral vectors (UAACACUGUCUGGUAAAGAUGG; listed as RNA, further chemistry not given here) [miR-141 mirVana mimics (Life Technologies); in some experiments over-expressed by lentiviral vectors]”, in the data set with PPC-1 cells, the clonal expansion result is reported as “inhibited” and the sphere formation entry was “inhibited”. In addition, in data set [1] (miR-141 overexpression (Lenti-141 MOI 10, 72 h)), the clonal growth entry is listed as “inhibited”. In addition, the serial sphere formation entry in data set [1] (miR-141 overexpression, CD44+ and bulk HPCa cells, 1st and 2nd generation spheres in Matrigel) is listed as “inhibited”. In addition, the EdU incorporation result in data set [2] was “reduced”. Further, the “effects on cell death and senescence” value in the data set with prostate cancer cells is “minimal effects”. In the data set on CD44, the “CD44 mRNA level” value was “significantly reduced” and the CD44 protein level entry is “significantly reduced”. Besides, the “protein levels of ARPC5, CDC42EP3, CDC42 and RAC1” value in data set [3] is on record as “downregulated, to varying degrees”.
